In EP0437367A2, “Compositions and methods for inhibiting osteoclast cellular adhesion to bone” (MERCK & CO. INC., priority 1990, dated 1991):
Bridge positions count the residues as written; N and C are the ends.

How the values were obtained:
Format in all cases: cell-based
rat osteoclasts [1] = biological target: T1, rat osteoclasts (Rattus norvegicus, UniProt F1LZX9+Q8R2H2); experiment: retraction of lamellipodia of rat osteoclasts
T1 sequence (F1LZX9 31-1043): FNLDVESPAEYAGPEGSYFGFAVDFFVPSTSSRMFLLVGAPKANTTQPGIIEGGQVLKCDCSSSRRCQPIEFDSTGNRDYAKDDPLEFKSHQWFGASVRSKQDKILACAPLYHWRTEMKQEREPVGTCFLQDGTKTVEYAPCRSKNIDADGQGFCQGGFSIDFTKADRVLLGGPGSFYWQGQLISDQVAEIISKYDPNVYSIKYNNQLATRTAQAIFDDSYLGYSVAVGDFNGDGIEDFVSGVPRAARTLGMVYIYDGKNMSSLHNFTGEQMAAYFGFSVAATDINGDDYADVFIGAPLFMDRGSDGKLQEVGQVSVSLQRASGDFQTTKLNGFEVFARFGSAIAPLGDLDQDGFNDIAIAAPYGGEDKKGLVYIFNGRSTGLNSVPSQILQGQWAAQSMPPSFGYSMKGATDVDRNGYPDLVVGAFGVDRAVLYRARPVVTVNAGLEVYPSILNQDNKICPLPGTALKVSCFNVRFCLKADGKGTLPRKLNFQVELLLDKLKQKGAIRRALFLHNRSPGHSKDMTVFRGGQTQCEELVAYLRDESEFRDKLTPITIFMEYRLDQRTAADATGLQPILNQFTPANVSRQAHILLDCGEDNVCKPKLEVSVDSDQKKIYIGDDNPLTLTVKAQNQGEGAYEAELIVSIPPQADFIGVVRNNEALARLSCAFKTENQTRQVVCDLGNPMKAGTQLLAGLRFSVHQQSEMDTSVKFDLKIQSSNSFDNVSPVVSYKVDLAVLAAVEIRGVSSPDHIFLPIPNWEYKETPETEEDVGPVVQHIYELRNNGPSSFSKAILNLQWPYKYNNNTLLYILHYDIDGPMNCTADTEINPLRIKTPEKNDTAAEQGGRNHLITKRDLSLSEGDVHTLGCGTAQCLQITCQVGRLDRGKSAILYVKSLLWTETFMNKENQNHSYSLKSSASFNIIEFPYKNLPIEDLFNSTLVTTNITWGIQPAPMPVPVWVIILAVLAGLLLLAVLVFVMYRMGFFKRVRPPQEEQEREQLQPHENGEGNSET
T1 sequence (Q8R2H2 26-787): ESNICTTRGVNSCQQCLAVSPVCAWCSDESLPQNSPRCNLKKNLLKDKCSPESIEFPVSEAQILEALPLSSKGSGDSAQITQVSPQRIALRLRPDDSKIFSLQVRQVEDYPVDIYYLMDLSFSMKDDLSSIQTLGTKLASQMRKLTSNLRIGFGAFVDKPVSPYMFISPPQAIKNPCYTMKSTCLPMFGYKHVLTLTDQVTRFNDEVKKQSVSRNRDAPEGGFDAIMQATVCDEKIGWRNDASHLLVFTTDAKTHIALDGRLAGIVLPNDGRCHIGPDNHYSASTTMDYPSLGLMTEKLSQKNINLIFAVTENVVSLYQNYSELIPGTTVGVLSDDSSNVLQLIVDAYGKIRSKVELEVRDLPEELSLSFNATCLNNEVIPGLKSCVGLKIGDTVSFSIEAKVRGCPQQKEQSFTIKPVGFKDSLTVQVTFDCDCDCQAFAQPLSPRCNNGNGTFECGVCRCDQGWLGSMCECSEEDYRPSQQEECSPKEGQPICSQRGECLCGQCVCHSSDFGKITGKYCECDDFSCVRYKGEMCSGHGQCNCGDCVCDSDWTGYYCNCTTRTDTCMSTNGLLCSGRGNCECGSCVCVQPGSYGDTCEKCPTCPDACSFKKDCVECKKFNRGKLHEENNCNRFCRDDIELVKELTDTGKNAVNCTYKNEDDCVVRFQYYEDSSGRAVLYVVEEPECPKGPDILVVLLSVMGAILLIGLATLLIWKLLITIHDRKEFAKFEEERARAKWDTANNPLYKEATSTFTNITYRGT
Source text: Osteoclasts were isolated from the long bones of 1-3 day old rats as described by Chambers et al., J. Cell Sci. 66: 383-399 (1984). Femora, tibiae and humera were dissected clean of soft tissue, split and scrapped with scalpels into 199 media pH 7-7.2 + 10% heat inactivated fetal calf serum + 100 U/ml antibiotics (penicillin G, steptomycin, amphotericin B, Gibco, New York). After gentle pipetting 60x with a wide bore pipette, the cell suspension was passed through a 110 um nylon mesh (Spectra) and aliquoted onto plastic dishes (Costar, Cambridge, MA), No. 1 coverslips (Corning, New York), glass cuvettes (Herminus) or bone slices (Arnett and Dempster, Endocrinology 120: 602-608 (1987)). All experiments with rat osteoclast cultures were conducted within the first 24 hr after isolation.
Rat or chicken osteoclasts were incubated with different concentrations of RGDS, echistatin and Ala²⁴ echistatin. All of these peptides induced morphological changes but rat osteoclasts 1 day after isolation on glass retracted lamellipodia at 10⁵x lower concentrations of echistatin (4.3 nM) compared to RGDS peptide. […] At these concentrations, extension/retraction and ruffling motility of the lamellipodia increased. […]

rat osteoclasts [2] = biological target: T1, rat osteoclasts; experiment: bone slice resorption assay with rat osteoclasts; conditions: range 1pM- 10 uM, P>0.07, Graph 3a
Protocol: Osteoclasts, large multinucleated cells up to 400 microns in diameter and with abundant acidophilic cytoplasm which function in the absorption and removal of osseous tissue, use the integrin receptor to bind bone as part of the mechanism of bone resorption. […] Based on the release of [³H] proline from labelled bone particles, the IC₅₀ of chicken osteoclast resorption was 100 nM. By comparison, the RGDS synthetic tetrapeptide inhibited rat or chicken resorption with an IC₅₀ of 0.1 mM. Attachment experiments with chicken osteoclasts and bone particles labelled with [³H] proline confirmed that the mechanism of action of echistatin is to inhibit osteoclast binding to bone. Echistatin induces the retraction of osteoclast lamellipodia in a manner reminiscent of 1 nM calcitonin or 1 uM prostaglandin E₂.
Osteoclasts were isolated from the long bones of 1-3 day old rats as described by Chambers et al., J. Cell Sci. 66: 383-399 (1984). […]
Resorption of rat and some chicken osteoclasts was measured by using bone slices (4.4 x 4.4 x 0.2 mm) from the diaphysis of bovine femur (Isomet, Buehler Ltd., Lake Bluff, IL) which were cut with a low speed diamond saw as described by Arnett and Dempster, 1986. […] Resorption pits were quantitated by reflected light microscopy with crossed polarizers and rotatable lambda/4 plate (Sato and Grasser, J. Bone Min. Res. in press).

chicken osteoclasts [3] = experiment: resorption by chicken osteoclasts, release of 3H proline from labelled bone particles
Protocol: Osteoclasts from the long bones of egg laying hens were isolated by the methods of Zambonin Zallone et al. (1989) and Blair et al., J. Cell Biol. 102: 1164-1172 (1986). Medullary bone was harvested with scalpels from split femora and tibiae of laying hens (Dekalb XL) that were on a Ca deficient diet (5070C- 9, Purina Mills Inc., St. Louis) for 3-6 wks. After washing in PBS 4°C, the suspension was pressed through a 110 um nylon mesh and then osmotically shocked in 0.2% NaCl for 3 min 37°C to lyse red blood cells. The cells were collected at 350xg (5 min, 4°C), and osteoclasts were sedimented through 70% serum for 90 min at 4°C in 50 ml tubes (Fisher). The bottom 5 ml was then layered over a 3 step (1.073, 1.099, 1.143 g/cm³) Nycodenz gradient (Accurate, Ct) and spun at 350xg, 20 min, 4°C. […] Cells excluding trypan blue (Gibco) were immediately counted on a hemocytometer (Fisher) and aliquoted at 1-2x 10⁶ total cells (not counting red blood cells)/ well of 48 well plates (Costar), no. […]
Therefore, for 1 day resorption experiments, unlabelled bone particles (50 ug, <20 um fraction) were first added to chicken cells at day 3 followed by labelled bone (100 ug, 20- 53 um) plus test compounds (Merck) at day 5. Alternatively, labelled bone (100 ug) plus compounds were added at day 3 and the media counted at day 6 with a LKB liquid scintillation counter. […]

chicken osteoclasts [4] = experiment: attachment assay of 3H proline labelled bone particles to chicken osteoclasts; conditions: chicken osteoclasts after 5-6 days culture
Protocol: Attachment of ³H proline labelled bone particles (20- 53 um) was followed with time by assaying free and bound pools. Chicken osteoclasts in 48 well plates were given 100 ug of labelled bone particles. Free was defined as particles liberated by 3x swirling of cultures with media. Bound was defined as particles liberated after 6 hr incubation and 2x swirling in 1N NaOH. All cells were completely disrupted by the latter treatment. Samples were then ashed in a Packard 306 oxidizer (Camberra Inst., NJ) and counted (LKB).
Free end bound particles of bone labelled with [³H] proline were assayed as a function of incubation time with chicken osteoclasts after 5-6 days culture at 37°C. […] At this echistatin concentration, resorption was inhibited by 40% with little effect on osteoclast morphology.

## Ala²⁴ echistatin
Rat osteoclasts [1]; rat osteoclasts 1 day after isolation on glass
  concentration at which lamellipodia retracted: 34 nM
Rat osteoclasts [1]; rat osteoclasts, followed for up to 2 hr
  concentration at which lamellipodia did not retract: 3.4 nM
Rat osteoclasts [2]
  effects on the resorption activity: insignificant effects
Chicken osteoclasts [3]; range 1pM- 10 uM, P>0.07, Graph 3a
  effects on the resorption activity: insignificant effects
Chicken osteoclasts [4]; 10 nM
  kinetics of bone attachment to osteoclasts: no significant effect

## CCCCC[C@H](O)/C=C/[C@H]1[C@H](O)CC(=O)[C@@H]1C/C=C\CCCC(=O)O [prostaglandin E₂]
Chicken osteoclasts [3]; Gallus gallus, Osteoclast, 24 h, Graph 2a, 1 day resorption assay, read-out: IC₅₀ of resorption
  IC50: 1000 nM

## H-ECESGPCCRNCKFLKEGTICKRARGDDMDDYCNGKTCDCPRNPHKGPAT-OH (disulfide 2-11, 7-32, 8-37, 20-39 (inferred)) [Synthetic Echistatin]
Chicken osteoclasts [4]; 100 nM, up to 150 min
  attachment of bone particles to osteoclasts: significantly inhibited
